Where two headings read alike, the source gives them in different places.
How the values were obtained:
[1] = test system: T1, mouse Abcg2; assay: Transepithelial transport, MDCK-II cells transduced with mAbcg2; format: in vitro ADME; conditions: MDCK-II mAbcg2, 5 µM, read-out: efflux transport ratio r
T1 construct: expressed in transfected cells; host or cells: MDCK-II cells stably transduced with mAbcg2 cDNA (made in the authors' institute)
Source text: Polarized Madin-Darby Canine Kidney (MDCK-II) cells (ECACC 00062107) stably transduced with either human (h) ABCB1, hABCG2 or mouse (m) Abcg2 cDNA were generated in our institute between 1995–2005. The proper identity and functionality, such as highly characteristic growth and drug transporter properties, including inhibitor sensitivity, were regularly checked in these epithelial cells. Mycoplasma routinely tested negative in these cells. The passage number was 10–15 when used in the transport experiments.
Transepithelial transport experiments were performed as previously described with 12-well plates (Transwell 3414, Corning Inc., Kennebunk, ME, USA) containing microporous polycarbonate membrane filters (3.0 µm pore size, 12 mm diameter). […]
After pre-incubation with 5 µM zosuquidar (ABCB1 inhibitor) and/or 5 µM Ko143 (ABCG2/Abcg2 inhibitor) in both compartments (when appropriate) for 1 h, the transport phase was initiated (t = 0) by replacing the medium in apical and basolateral compartments with fresh DMEM with 10% FBS and the appropriate inhibitor(s), and repotrectinib at 5 µM in the donor compartment. […] The active transport ratio r, calculated by dividing the amount of apically directed drug transport by basolaterally directed drug translocation after 8 h, was used to assess active transport of repotrectinib.

[2] = test system: ROS1-positive advanced NSCLC; conditions: cited from earlier work; for confirmed objective response rate (ORR): preliminary TRIDENT-1 data

In the case of `C[C@H]1CNC(=O)c2cnn3ccc(nc23)N[C@H](C)c2cc(F)ccc2O1` [repotrectinib], the efflux ratio at 8 h, 5 µM ([1]; pH 7.4, with zosuquidar 5 µM + Ko143 5 µM, + zosuquidar 5 µM + Ko143 5 µM) is listed as 1.1, the efflux ratio at 8 h, 5 µM ([1]; pH 7.4, with zosuquidar 5 µM, + zosuquidar 5 µM) is listed as 40 and the “confirmed objective response rate (ORR)” value ([2]; TKI-naïve ROS1 + NSCLC patients) is listed as 86%. For the same compound, the “confirmed objective response rate (ORR)” value ([2]; TKI-pretreated patients) was 50%, the “treatment-related adverse events, severity” value ([2]; majority of events, manageable) was “grade 1 or grade 2” and the “most common adverse effect” value ([2]; on-going phase I clinical trial (NCT03063116)) was “dizziness”. For the same compound, the “patients with prominent clinical activity” value ([2]; patients who had disease progression on prior TRK inhibitors) was 50%.

— article PMC8619046, “ABCB1 and ABCG2 Control Brain Accumulation and Intestinal Disposition of the Novel ROS1/TRK/ALK Inhibitor Repotrectinib, While OATP1A/1B, ABCG2, and CYP3A Limit Its Oral Availability” (Pharmaceutics, 2021)
